Read-outs that look alike come from different tables or passages of the source.
What was measured:
[1] = test system: p21 induction in HCT 116 cells; experiment: p21 induction in cells (In-Cell Western, p21/GAPDH ratio); type: cell-based; conditions: 24 h compound incubation, read-out: p21_EC50
Method in brief: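 HCT 116 cells treated 24 h at 37° C with 11-point, 2-fold dilutions typically from 10 μM, in duplicate. Fixed cells co-stained for p21 (800 nm) and GAPDH (700 nm) by In-Cell Western. p21/GAPDH ratio normalised between DMSO and reference WRN inhibitor controls, and EC50 obtained by nonlinear regression.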

[2] = target: human Werner helicase (WRN, amino acids 517-1235 with L1074F point mutation) (Homo sapiens (Human), UniProt Q14191, L1074F); experiment: WRN (BV08) ADP-Glo assay; type: biochemical; conditions: human WRN (aa 517-1235, L1074F), read-out: ADP-Glo_hWRN_IC50
Method in brief: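 Untagged WRN 517-1235 (L1074F), Sf9/baculovirus-expressed, 0.15 nM, preincubated 15 min with compound, then 5 μM ATP and 0.1 nM annealed DNA duplex added; 60 min at 25 °C in Bicine pH 7.5, 1 mM MgCl2, 1% DMSO. ADP-Glo luminescence; % inhibition vs DMSO and 20 μM NSC-617145 controls, four-parameter IC50 fit.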

human Werner helicase (WRN, amino acids 517-1235 with L1074F point mutation), sequence (Q14191 other isoform, or with tags, fused parts or gaps L1074F (already in the parent)): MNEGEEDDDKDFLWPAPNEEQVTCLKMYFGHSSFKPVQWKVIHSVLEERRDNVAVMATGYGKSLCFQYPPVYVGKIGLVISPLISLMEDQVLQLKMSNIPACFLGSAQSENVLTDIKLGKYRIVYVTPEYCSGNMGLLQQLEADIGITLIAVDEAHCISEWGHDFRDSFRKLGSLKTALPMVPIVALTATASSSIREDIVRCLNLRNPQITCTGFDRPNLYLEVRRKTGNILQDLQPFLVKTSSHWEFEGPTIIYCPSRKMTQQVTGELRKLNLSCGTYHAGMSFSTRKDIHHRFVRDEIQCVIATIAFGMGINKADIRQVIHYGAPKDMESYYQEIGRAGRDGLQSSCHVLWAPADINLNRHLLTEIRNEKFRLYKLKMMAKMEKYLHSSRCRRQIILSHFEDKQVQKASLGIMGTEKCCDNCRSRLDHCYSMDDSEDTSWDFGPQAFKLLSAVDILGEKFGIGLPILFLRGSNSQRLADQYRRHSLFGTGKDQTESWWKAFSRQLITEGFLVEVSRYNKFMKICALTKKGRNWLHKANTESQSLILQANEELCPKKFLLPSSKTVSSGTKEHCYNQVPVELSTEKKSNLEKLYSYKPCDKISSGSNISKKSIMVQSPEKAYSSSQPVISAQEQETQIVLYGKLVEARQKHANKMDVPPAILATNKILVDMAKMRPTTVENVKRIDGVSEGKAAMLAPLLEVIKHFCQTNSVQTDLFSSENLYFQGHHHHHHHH

Work on `CCc1c([C@]23CCN(C(=O)c4ncnc(C)c4O)C[C@H]2C3)c(=O)c2nn(-c3ccnc(OC)c3)nc2n1CC(=O)NC12CC(C(C)C)(C1)C2` (relative stereo) [Compound I-41, rel-2-{5-ethyl-6-[(1R,6S)-3-(5-hydroxy-6-methylpyrimidine-4-carbonyl)-3-azabicyclo[4.1.0]heptan-6-yl]-2-(2-methoxypyridin-4-yl)-7-oxo-2H,4H,7H-[1,2,3]triazolo[4,5-b]pyridin-4-yl}-N-[3-(propan-2-yl)bicyclo[1.1.1]pentan-1-yl]acetamide] yielded an EC50 ([1]; Homo sapiens) of 2 to 5 µM and an IC50 [2] of 0.005 to 0.05 µM.

`CCc1c(N2CCN(C(=O)c3c(OC)ncc(C)c3O)[C@H]3CC[C@@H]32)c(=O)c2nn(C3=CCOCC3)nc2n1CC(=O)NC12CC(C(C)C)(C1)C2` [Compound I-24, 2-(2-(3,6-dihydro-2H-pyran-4-yl)-5-ethyl-6-((1S,6S)-5-(4-hydroxy-2-methoxy-5-methylnicotinoyl)-2,5-diazabicyclo[4.2.0]octan-2-yl)-7-oxo-2,7-dihydro-4H-[1,2,3]triazolo[4,5-b]pyridin-4-yl)-N-(3-isopropylbicyclo[1.1.1]pentan-1-yl)acetamide] showed an EC50 ([1]; Homo sapiens) of no more than 0.5 µM and an IC50 [2] of 0.005 to 0.05 µM.

`CCc1c(N2CCN(C(=O)c3ncc4c(c3O)CCO4)CC2)c(=O)c2nn(-c3ccnc(OC)c3)nc2n1CC(=O)Nc1ccc(C(F)(F)F)cc1Cl` [Compound I-152, N-[2-chloro-4-(trifluoromethyl)phenyl]-2-[5-ethyl-6-(4-{4-hydroxy-2H,3H-furo[2,3-c]pyridine-5-carbonyl}piperazin-1-yl)-2-(2-methoxypyridin-4-yl)-7-oxo-2H,4H,7H-[1,2,3]triazolo[4,5-b]pyridin-4-yl]acetamide] showed an EC50 ([1]; Homo sapiens) of no more than 0.5 µM and an IC50 [2] of no more than 0.005 µM.

For `CCc1c(N2CCN(C(=O)c3c(O)ccc4ncoc34)CC2)c(=O)c2nn(-c3ccnc(OC)c3)nc2n1CC(=O)NC12CC(C(F)(F)F)(C1)C2` [Compound I-3, 2-(5-ethyl-6-(4-(6-hydroxybenzo[d]oxazole-7-carbonyl)piperazin-1-yl)-2-(2-methoxypyridin-4-yl)-7-oxo-2,7-dihydro-4H-[1,2,3]triazolo[4,5-b]pyridin-4-yl)-N-(3-(trifluoromethyl)bicyclo[1.1.1]pentan-1-yl)acetamide], the EC50 [1] was no more than 0.5 µM and the IC50 [2] was 0.005 to 0.05 µM.

Compound `CCc1c(N2CCN(C(=O)c3ncnc(C)c3O)[C@H]3CC[C@@H]32)c(=O)c2nn(-c3ccnc(OC)c3)nc2n1CC(=O)NC1CC2(CCC2)C1OC` (stereo partly drawn) [Compound I-71, 2-{5-ethyl-6-[(1S,6S)-5-(5-hydroxy-6-methylpyrimidine-4-carbonyl)-2,5-diazabicyclo[4.2.0]octan-2-yl]-2-(2-methoxypyridin-4-yl)-7-oxo-2H,4H,7H-[1,2,3]triazolo[4,5-b]pyridin-4-yl}-N-{1-methoxyspiro[3.3]heptan-2-yl}acetamide] has an EC50 ([1]; Homo sapiens) greater than 5 µM and an IC50 [2] of 0.1 to 0.5 µM.

Compound `CCc1c(N2CCN(C(=O)c3c(Oc4cnn(C)c4)ncc(C)c3O)CC2)c(=O)c2nn(-c3ccnc(OC)c3)nc2n1CC(=O)NC12CC(C(C)C)(C1)C2` [Compound I-63, 2-[5-ethyl-6-(4-{4-hydroxy-5-methyl-2-[(1-methyl-1H-pyrazol-4-yl)oxy]pyridine-3-carbonyl}piperazin-1-yl)-2-(2-methoxypyridin-4-yl)-7-oxo-2H,4H,7H-[1,2,3]triazolo[4,5-b]pyridin-4-yl]-N-[3-(propan-2-yl)bicyclo[1.1.1]pentan-1-yl]acetamide] has an EC50 ([1]; Homo sapiens) of no more than 0.5 µM and an IC50 [2] of 0.005 to 0.05 µM.

With `CCc1c(N2CCN(C(=O)c3c(OC)ncc(C)c3O)CC2)c(=O)c2nn(-c3ccnc(OC)c3)nc2n1CC(=O)NC12CC(C(C)(F)F)(C1)C2` [Compound I-122, N-[3-(1,1-difluoroethyl)bicyclo[1.1.1]pentan-1-yl]-2-{5-ethyl-6-[4-(4-hydroxy-2-methoxy-5-methylpyridine-3-carbonyl)piperazin-1-yl]-2-(2-methoxypyridin-4-yl)-7-oxo-2H,4H,7H-[1,2,3]triazolo[4,5-b]pyridin-4-yl}acetamide] the EC50 ([1]; Homo sapiens) was 0.5 to 2 µM and the IC50 [2] was 0.005 to 0.05 µM.

For `CCc1c(N2CCN(C(=O)c3nocc3O)[C@H]3CC[C@@H]32)c(=O)c2nn(C3=CCOCC3)nc2n1CC(=O)NC12CC(C(C)C)(C1)C2` [Compound I-171, 2-[2-(3,6-dihydro-2H-pyran-4-yl)-5-ethyl-6-[(1S,6S)-5-(4-hydroxy-1,2-oxazole-3-carbonyl)-2,5-diazabicyclo[4.2.0]octan-2-yl]-7-oxo-2H,4H,7H-[1,2,3]triazolo[4,5-b]pyridin-4-yl]-N-[3-(propan-2-yl)bicyclo[1.1.1]pentan-1-yl]acetamide], the EC50 ([1]; Homo sapiens) was no more than 0.5 µM and the IC50 [2] was no more than 0.005 µM.

`CCc1c(N2CCN(C(=O)c3c(OC)ncc(C)c3O)[C@H]3CC[C@@H]32)c(=O)c2nn(-c3ccnc(C)c3)nc2n1CC(=O)Nc1ccc(C(F)(F)F)cc1F` [Compound I-95, 2-{5-ethyl-6-[(1S,6S)-5-(4-hydroxy-2-methoxy-5-methylpyridine-3-carbonyl)-2,5-diazabicyclo[4.2.0]octan-2-yl]-2-(2-methylpyridin-4-yl)-7-oxo-2H,4H,7H-[1,2,3]triazolo[4,5-b]pyridin-4-yl}-N-[2-fluoro-4-(trifluoromethyl)phenyl]acetamide] gave an EC50 ([1]; Homo sapiens) of no more than 0.5 µM and an IC50 [2] of no more than 0.005 µM.

Compound `CCc1c(N2CCN(C(=O)c3cccc4oc(=O)[nH]c34)[C@H]3CC[C@@H]32)c(=O)c2nn(C3=CCOCC3)nc2n1CC(=O)NC12CC(C(C)C)(C1)C2` [Compound I-199, 2-[2-(3,6-dihydro-2H-pyran-4-yl)-5-ethyl-7-oxo-6-[(1S,6S)-5-(2-oxo-2,3-dihydro-1,3-benzoxazole-4-carbonyl)-2,5-diazabicyclo[4.2.0]octan-2-yl]-2H,4H,7H-[1,2,3]triazolo[4,5-b]pyridin-4-yl]-N-[3-(propan-2-yl)bicyclo[1.1.1]pentan-1-yl]acetamide] has an EC50 ([1]; Homo sapiens) of no more than 0.5 µM and an IC50 [2] of 0.005 to 0.05 µM.

With `CCc1c(N2CCN(C(=O)c3c(OC)ncc(C)c3O)CC2)c(=O)c2nn(-c3ccnc(OC)c3)nc2n1CC(=O)NC12CC(C3CCOC3)(C1)C2` (stereo not shown) [Compound I-123, 2-{5-ethyl-6-[4-(4-hydroxy-2-methoxy-5-methylpyridine-3-carbonyl)piperazin-1-yl]-2-(2-methoxypyridin-4-yl)-7-oxo-2H,4H,7H-[1,2,3]triazolo[4,5-b]pyridin-4-yl}-N-[3-(oxolan-3-yl)bicyclo[1.1.1]pentan-1-yl]acetamide] the EC50 ([1]; Homo sapiens) was greater than 5 µM and the IC50 [2] was 0.05 to 0.1 µM.

`CCc1c(N2CCN(C(=O)c3nccnc3OC)[C@H]3CC[C@@H]32)c(=O)c2nn(C3=CCOCC3)nc2n1CC(=O)NC12CC(C(C)C)(C1)C2` [Compound I-200, 2-[2-(3,6-dihydro-2H-pyran-4-yl)-5-ethyl-6-[(1S,6S)-5-(3-methoxypyrazine-2-carbonyl)-2,5-diazabicyclo[4.2.0]octan-2-yl]-7-oxo-2H,4H,7H-[1,2,3]triazolo[4,5-b]pyridin-4-yl]-N-[3-(propan-2-yl)bicyclo[1.1.1]pentan-1-yl]acetamide] showed an EC50 ([1]; Homo sapiens) of no more than 0.5 µM and an IC50 [2] of 0.005 to 0.05 µM.

For `CCc1c(N2CCN(C(=O)c3ncnc(C)c3O)CC2)c(=O)c2nn(-c3ccccn3)nc2n1CC(=O)Nc1ccc(C(F)(F)F)cc1Cl` [Compound I-127, N-[2-chloro-4-(trifluoromethyl)phenyl]-2-{5-ethyl-6-[4-(5-hydroxy-6-methylpyrimidine-4-carbonyl)piperazin-1-yl]-7-oxo-2-(pyridin-2-yl)-2H,4H,7H-[1,2,3]triazolo[4,5-b]pyridin-4-yl}acetamide], the EC50 ([1]; Homo sapiens) was no more than 0.5 µM and the IC50 [2] was no more than 0.005 µM.

`CCc1c(N2CCN(C(=O)c3ncnc(C)c3O)[C@H]3CC[C@@H]32)c(=O)c2nn(-c3ccnc(C)c3)nc2n1CC(=O)Nc1ccc(C(F)(F)F)cc1F` [Compound I-59, 2-{5-ethyl-6-[(1S,6S)-5-(5-hydroxy-6-methylpyrimidine-4-carbonyl)-2,5-diazabicyclo[4.2.0]octan-2-yl]-2-(2-methylpyridin-4-yl)-7-oxo-2H,4H,7H-[1,2,3]triazolo[4,5-b]pyridin-4-yl}-N-[2-fluoro-4-(trifluoromethyl)phenyl]acetamide] gave an EC50 ([1]; Homo sapiens) of no more than 0.5 µM and an IC50 [2] of no more than 0.005 µM.

In the case of `CCc1c(N2CCN(C(=O)c3ncnc(C)c3O)CC2)c(=O)c2nn(-c3ccccn3)nc2n1CC(=O)NC12CC(C(C)C)(C1)C2` [Compound I-101, 2-{5-ethyl-6-[4-(5-hydroxy-6-methylpyrimidine-4-carbonyl)piperazin-1-yl]-7-oxo-2-(pyridin-2-yl)-2H,4H,7H-[1,2,3]triazolo[4,5-b]pyridin-4-yl}-N-[3-(propan-2-yl)bicyclo[1.1.1]pentan-1-yl]acetamide], the EC50 ([1]; Homo sapiens) is reported as 0.5 to 2 µM and the IC50 [2] is reported as 0.005 to 0.05 µM.

`CCc1c(N2CCN(C(=O)c3ncnc(C)c3O)CC2)c(=O)c2nn(-c3cnn(C4CC4)c3)nc2n1CC(=O)Nc1ccc(C(F)(F)F)cc1Cl` [Compound I-112, N-[2-chloro-4-(trifluoromethyl)phenyl]-2-[2-(1-cyclopropyl-1H-pyrazol-4-yl)-5-ethyl-6-[4-(5-hydroxy-6-methylpyrimidine-4-carbonyl)piperazin-1-yl]-7-oxo-2H,4H,7H-[1,2,3]triazolo[4,5-b]pyridin-4-yl]acetamide] gave an EC50 ([1]; Homo sapiens) of no more than 0.5 µM and an IC50 [2] of 0.005 to 0.05 µM.

`CCc1c(N2CCN(C(=O)c3c(O)ccc4ncoc34)[C@H]3CC[C@@H]32)c(=O)c2nn(-c3ccnc(OC)c3)nc2n1CC(=O)NC12CC(C(F)(F)F)(C1)C2` [Compound I-148, 2-{5-ethyl-6-[(1S,6S)-5-(6-hydroxy-1,3-benzoxazole-7-carbonyl)-2,5-diazabicyclo[4.2.0]octan-2-yl]-2-(2-methoxypyridin-4-yl)-7-oxo-2H,4H,7H-[1,2,3]triazolo[4,5-b]pyridin-4-yl}-N-[3-(trifluoromethyl)bicyclo[1.1.1]pentan-1-yl]acetamide] was tested, and the EC50 ([1]; Homo sapiens) was no more than 0.5 µM and the IC50 [2] was 0.005 to 0.05 µM.
